In patent US20220281831A1, “FUSED-GLUTARIMIDE CRBN LIGANDS AND USES THEREOF” (Kymera Therapeutics, Inc., priority 2019, published 2022):
pIC50: −log10 of the molar value.

Experiments:
[1] = molecular target: His-tagged CRBN-DDB1 complex (Homo sapiens, UniProt Q96SW2); test: Time-Resolved Fluorescence Resonance Energy Transfer (TR-FRET / HTRF) CRBN binding assay, displacement of Cy5-labeled thalidomide; conditions: His-CRBN-DDB1, Cy5-thalidomide 8 nM, 1 hour room temperature
CRBN-DDB1 = CRBN-DDB1 (Homo sapiens, UniProt Q96SW2); test: Fluorescence Polarization (FP) CRBN binding assay, probe TM-493 (FAM-BB-100); conditions: CRBN-DDB1, TM-493 probe, 60 min room temperature
Description: Fluorescence Polarization (FP) Assay
Materials: PerkinElmer EnVision 2104 Multilabel Reader, PerkinElmer FITC FP dual emission Label 2100-8060, Corning 384-well microplate #4514, V-CMR-TM-493 (FAM-BB-100), and CRBN-DDB1-180605.
Methods: Dilution buffer (50 mM HEPES-Na pH 7.5, 100 mM NaCl, 2 mM DTT, and 0.005% Tween-20) and compound DMSO dilutions were prepared. 4× compound working solutions were made with 8% DMSO (4×) and 13.8 μL/well of dilution buffer was placed in a new 96-well plate and 1.2 μL/well of above compound DMSO dilutions were added to the wells. 40 nM (4×) TM-493 in dilution buffer was prepared from a 10 μM DMSO stock and 15 μL per well of the TM-493 working solution was transferred into the compound working solution. 160 nM (2×) CRBN-DDB1 working solution was prepared with Dilution Buffer and 10 μL/well were added into a 384-well plate. 10 μL per well of the TM-493/compound mixture were transferred into the 384-well plate. The “positive control” was sample without protein and compound in 2% DMSO. After incubation at room temperature for 60 min, data was collected and read on data on an EnVision with the following setting: Excitation Light (%): 100; Measurement Height: 9.4; G-Factor: 1; Detector Gain 1: 200; Detector Gain 2: 200; Flash Number: 100. Data was processed using GraphPad Prism 7.0
The compound numbers correspond to the compound numbers in Table 1.

Chain of CRBN-DDB1 (Q96SW2 whole entry): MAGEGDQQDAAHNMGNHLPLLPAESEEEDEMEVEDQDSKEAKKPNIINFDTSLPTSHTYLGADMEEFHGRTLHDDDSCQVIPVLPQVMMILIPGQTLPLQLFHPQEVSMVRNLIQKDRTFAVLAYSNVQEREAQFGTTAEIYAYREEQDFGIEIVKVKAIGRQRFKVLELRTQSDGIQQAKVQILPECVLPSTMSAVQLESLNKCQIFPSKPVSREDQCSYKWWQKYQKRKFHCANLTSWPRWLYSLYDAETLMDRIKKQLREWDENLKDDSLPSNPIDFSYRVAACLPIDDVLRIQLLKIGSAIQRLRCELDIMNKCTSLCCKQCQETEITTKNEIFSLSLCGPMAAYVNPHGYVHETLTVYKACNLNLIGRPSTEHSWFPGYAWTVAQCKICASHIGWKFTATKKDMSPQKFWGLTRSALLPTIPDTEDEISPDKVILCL
Chain of CRBN-DDB1 (Q16531 whole entry partner): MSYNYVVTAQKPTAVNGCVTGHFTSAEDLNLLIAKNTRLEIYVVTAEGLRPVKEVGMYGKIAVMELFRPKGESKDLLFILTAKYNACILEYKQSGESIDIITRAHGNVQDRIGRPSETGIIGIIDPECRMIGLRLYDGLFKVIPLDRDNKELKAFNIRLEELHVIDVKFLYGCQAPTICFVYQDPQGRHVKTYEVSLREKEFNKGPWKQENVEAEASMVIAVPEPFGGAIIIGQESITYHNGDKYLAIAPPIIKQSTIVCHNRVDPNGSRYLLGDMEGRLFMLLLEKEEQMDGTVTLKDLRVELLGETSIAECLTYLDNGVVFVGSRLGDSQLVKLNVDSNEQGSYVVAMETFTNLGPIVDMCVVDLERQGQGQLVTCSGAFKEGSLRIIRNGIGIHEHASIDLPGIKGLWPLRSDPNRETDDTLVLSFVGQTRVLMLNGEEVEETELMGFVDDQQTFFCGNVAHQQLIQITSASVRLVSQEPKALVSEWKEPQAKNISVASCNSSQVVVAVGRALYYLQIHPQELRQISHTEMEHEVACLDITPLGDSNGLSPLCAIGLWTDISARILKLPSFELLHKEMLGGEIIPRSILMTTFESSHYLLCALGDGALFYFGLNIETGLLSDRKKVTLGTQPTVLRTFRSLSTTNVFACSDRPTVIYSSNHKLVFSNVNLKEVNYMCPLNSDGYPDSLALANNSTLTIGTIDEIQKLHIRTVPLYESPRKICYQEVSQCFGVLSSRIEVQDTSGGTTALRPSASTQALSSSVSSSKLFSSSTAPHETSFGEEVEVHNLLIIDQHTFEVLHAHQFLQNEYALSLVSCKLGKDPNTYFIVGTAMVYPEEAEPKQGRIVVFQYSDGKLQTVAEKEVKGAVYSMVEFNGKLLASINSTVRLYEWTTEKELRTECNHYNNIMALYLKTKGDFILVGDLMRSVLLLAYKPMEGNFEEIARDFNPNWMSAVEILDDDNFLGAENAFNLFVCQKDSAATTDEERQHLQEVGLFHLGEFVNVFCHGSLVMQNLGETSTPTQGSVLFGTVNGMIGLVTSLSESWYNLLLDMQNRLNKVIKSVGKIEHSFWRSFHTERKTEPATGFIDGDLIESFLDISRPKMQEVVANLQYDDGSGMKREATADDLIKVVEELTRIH
Chain of His-tagged CRBN-DDB1 complex (Q96SW2 whole entry): as the sequence (Q96SW2 whole entry) above
Chain of His-tagged CRBN-DDB1 complex (Q16531 whole entry partner): as the sequence (Q16531 whole entry partner) above

Compound | pIC50 [1] | pIC50 (CRBN-DDB1)
O=c1[nH]c(=O)c2cc(Br)ccc2o1 [Compound I-53, 6-Bromo-3H-1,3-benzoxazine-2,4-dione] | < 4.00 | < 4.00
O=c1[nH]c(=O)c2c(Br)cccc2o1 [Compound I-54, 5-Bromo-3H-1,3-benzoxazine-2,4-dione] | < 4.00 | < 4.00
O=C1NC(=O)C2(CC2)c2cccc(Br)c21 [Compound I-58, 8′-Bromo-2′H-spiro[cyclopropane-1,4′-isoquinoline]-1′,3′-dione] | < 4.00 | < 4.00
O=C1Cc2cccc(NC(=O)c3ccccc3)c2C(=O)N1 [Compound I-62] | > 5.00 | 4.00 to 4.52
NCc1cccc2c1C(=O)NC(=O)C2 [Compound I-68] | 4.52 to 5.00 | 4.52 to 5.00
Nc1cccc2c1C(=O)NC(=O)C2(F)F [Compound I-71, 8-Amino-4,4-difluoro-2H-isoquinoline-1,3-dione] | > 5.00 | > 5.00
O=C1Cc2c(F)cccc2C(=O)N1 [Compound I-72, 5-Fluoro-2,4-dihydroisoquinoline-1,3-dione] | 4.52 to 5.00 | < 4.00
O=C1Cc2cc(F)ccc2C(=O)N1 [Compound I-73, 6-Fluoro-2,4-dihydroisoquinoline-1,3-dione] | 4.52 to 5.00 | < 4.00
O=C1Cc2ccc(F)cc2C(=O)N1 [Compound I-74, 7-Fluoro-2,4-dihydroisoquinoline-1,3-dione] | 4.00 to 4.52 | 4.00 to 4.52
O=C1Cc2cccc(F)c2C(=O)N1 [Compound I-75, 8-Fluoro-2,4-dihydroisoquinoline-1,3-dione] | 4.52 to 5.00 | 4.00 to 4.52
Nc1ccc2c(c1)CC(=O)NC2=O [Compound I-77] | 4.52 to 5.00 | 4.52 to 5.00
Cc1cccc2c1CC(=O)NC2=O [Compound I-78] | 4.52 to 5.00 | < 4.00
Cc1ccc2c(c1)CC(=O)NC2=O [Compound I-79] | 4.00 to 4.52 | < 4.00
COc1cc(F)ccc1N1C[C@@H]2C(=O)NC(=O)[C@@H]2C1 [Compound I-124] | 4.00 to 4.52 | < 4.00
CCCOc1ccc(N2C[C@@H]3C(=O)NC(=O)[C@@H]3C2)cc1 [Compound I-132] | 4.00 to 4.52 | < 4.00
CCOC(=O)c1cccc(N2C[C@@H]3C(=O)NC(=O)[C@@H]3C2)c1 [Compound I-133] | 4.52 to 5.00 | < 4.00
O=C1NC(=O)[C@@H]2CN(c3ccc(Oc4ccccc4)cc3)C[C@H]12 [Compound I-151] | 4.00 to 4.52 | < 4.00
O=C1NC(=O)[C@@H]2CN(C3CCCC3)C[C@H]12 [Compound I-159] | < 4.00 | < 4.00
Nc1ccc2c(c1)C1(CC(=O)NC1=O)NC2=O (centres unmarked) [Compound I-175] | < 4.00 | < 4.00
O=C1CC2(CCc3ccccc32)C(=O)N1 (centres unmarked) [Compound I-185] | < 4.00 | < 4.00

Compound | pIC50 [1] | pIC50 (CRBN-DDB1)
O=C1CC2(Cc3ccccc3C2)C(=O)N1 [Compound I-186, 1,3-dihydrospiro[indene-2,3′-pyrrolidine]-2′,5′-dione] | 4.00 to 4.52 | < 4.00
O=C1Cc2cccc(N3CCCCC3=O)c2C(=O)N1 [Compound I-193] | 4.52 to 5.00 | 4.00 to 4.52
O=C1Cc2cccc(-n3ccccc3=O)c2C(=O)N1 [Compound I-194] | 4.52 to 5.00 | 4.00 to 4.52
O=C1C[C@]2(CCc3c([N+](=O)[O-])cccc32)C(=O)N1 [Compound I-196] | < 4.00 | < 4.00
O=C1C[C@@]2(CCc3c([N+](=O)[O-])cccc32)C(=O)N1 [Compound I-197] | < 4.00 | < 4.00
O=C1Cc2cccc(Oc3cccc(F)c3)c2C(=O)N1 [Compound I-198, 8-(3-Fluorophenoxy)-2,4-dihydroisoquinoline-1,3-dione] | > 5.00 | 4.52 to 5.00
Cc1cccc(Oc2cccc3c2C(=O)NC(=O)C3)c1 [Compound I-199, 8-(3-Methylphenoxy)-2,4-dihydroisoquinoline-1,3-dione] | > 5.00 | 4.52 to 5.00
O=C1Cc2cccc(Oc3ccccc3F)c2C(=O)N1 [Compound I-200, 8-(2-Fluorophenoxy)-2,4-dihydroisoquinoline-1,3-dione] | > 5.00 | > 5.00
O=C1Cc2cccc(Oc3ccccc3Cl)c2C(=O)N1 [Compound I-202, 8-(2-Chlorophenoxy)-2,4-dihydroisoquinoline-1,3-dione] | > 5.00 | > 5.00
Cc1cc2c(c(Oc3ccccc3)c1)C(=O)NC(=O)C2 [Compound I-203, 6-Methyl-8-phenoxy-2,4-dihydroisoquinoline-1,3-dione] | > 5.00 | > 5.00
CC(C)(C)OC(=O)NCCCCCCCCCc1ccccc1Oc1cccc2c1C(=O)NC(=O)C2 [Compound I-218] | < 4.00 | < 4.00
CC(C)(C)OC(=O)NCCCc1cccc(Oc2cccc3c2C(=O)NC(=O)C3)c1 [Compound I-220] | 4.52 to 5.00 | 4.00 to 4.52
CC(C)(C)OC(=O)NCCCC#Cc1cccc(Oc2cccc3c2C(=O)NC(=O)C3)c1 [Compound I-221] | > 5.00 | < 4.00
CC(C)(C)OC(=O)NCCCCCc1cccc(Oc2cccc3c2C(=O)NC(=O)C3)c1 [Compound I-222] | 4.00 to 4.52 | 4.00 to 4.52
CC(C)(C)OC(=O)NCCCCCC#Cc1cccc(Oc2cccc3c2C(=O)NC(=O)C3)c1 [Compound I-223] | 4.00 to 4.52 | 4.00 to 4.52
CC(C)(C)OC(=O)NCCCCCCCc1cccc(Oc2cccc3c2C(=O)NC(=O)C3)c1 [Compound I-224] | > 5.00 | < 4.00
CC(C)(C)OC(=O)NCCCCCCCC#Cc1cccc(Oc2cccc3c2C(=O)NC(=O)C3)c1 [Compound I-225] | < 4.00 | < 4.00
CC(C)(C)OC(=O)NCCCCCCCCCc1cccc(Oc2cccc3c2C(=O)NC(=O)C3)c1 [Compound I-226] | < 4.00 | < 4.00
CC(C)(C)OC(=O)NCCCc1ccc(Oc2cccc3c2C(=O)NC(=O)C3)cc1 [Compound I-227] | > 5.00 | < 4.00
CC(C)(C)OC(=O)NCCCC#Cc1ccc(Oc2cccc3c2C(=O)NC(=O)C3)cc1 [Compound I-228] | < 4.00 | < 4.00

Compound | pIC50 [1] | pIC50 (CRBN-DDB1)
CC(C)(C)OC(=O)NCCCCCc1ccc(Oc2cccc3c2C(=O)NC(=O)C3)cc1 [Compound I-229] | < 4.00 | < 4.00
CC(C)(C)OC(=O)NCCCCCC#Cc1ccc(Oc2cccc3c2C(=O)NC(=O)C3)cc1 [Compound I-230] | < 4.00 | < 4.00
CC(C)(C)OC(=O)NCCCCCCCc1ccc(Oc2cccc3c2C(=O)NC(=O)C3)cc1 [Compound I-231] | < 4.00 | < 4.00
CC(C)(C)OC(=O)NCCCCCCCC#Cc1ccc(Oc2cccc3c2C(=O)NC(=O)C3)cc1 [Compound I-232] | < 4.00 | < 4.00
CC(C)(C)OC(=O)NCCCCCCCCCc1ccc(Oc2cccc3c2C(=O)NC(=O)C3)cc1 [Compound I-233] | < 4.00 | < 4.00
CC(C)(C)OC(=O)NCCCCCC#Cc1cccc(Oc2cccc3c2C(=O)NC(=O)C3=O)c1 [Compound I-234] | > 5.00 | > 5.00
O=C1Cc2cncc(Oc3ccccc3)c2C(=O)N1 [Compound I-235] | > 5.00 | 4.52 to 5.00
O=C1Cc2nccc(Oc3ccccc3)c2C(=O)N1 [Compound I-236] | < 4.00 | < 4.00
CC(C)(C)OC(=O)NCCCCCCCC#Cc1cccc(Oc2cccc3c2C(=O)NC(=O)C3=O)c1 [Compound I-237] | > 5.00 | 4.52 to 5.00
O=C1NC(=O)c2cc(Oc3ccccc3)ccc2C1=O [Compound I-238] | 4.00 to 4.52 | 4.00 to 4.52
CC(C)(C)OC(=O)NCCCC#Cc1ccc(Oc2cccc3c2C(=O)NC(=O)C3=O)cc1 [Compound I-239] | > 5.00 | > 5.00
CC(C)(C)OC(=O)NCCCCCCCC#Cc1ccc(Oc2cccc3c2C(=O)NC(=O)C3=O)cc1 [Compound I-240] | > 5.00 | 4.52 to 5.00
CC(C)(C)OC(=O)NCCCCCCCCCc1ccc(Oc2cccc3c2C(=O)NC(=O)C3=O)cc1 [Compound I-241] | > 5.00 | 4.00 to 4.52
CC(C)(C)OC(=O)NCCCCCCCC#Cc1ccccc1Oc1cccc2c1C(=O)NC(=O)C2=O [Compound I-243] | > 5.00 | 4.00 to 4.52
NCC#Cc1cccc(Oc2cccc3c2C(=O)NC(=O)C3)c1 [Compound I-244] | 4.52 to 5.00 | 4.00 to 4.52
NCCCC#Cc1cccc(Oc2cccc3c2C(=O)NC(=O)C3)c1 [Compound I-245] | > 5.00 | 4.52 to 5.00
NCCCCCc1cccc(Oc2cccc3c2C(=O)NC(=O)C3)c1 [Compound I-246] | > 5.00 | > 5.00
NCCCCCC#Cc1cccc(Oc2cccc3c2C(=O)NC(=O)C3)c1 [Compound I-247] | > 5.00 | 4.52 to 5.00
